This note sets out measurements from paper PMC3493464, “Functional Analysis of Metabolic Channeling and Regulation in Lignin Biosynthesis: A Computational Approach” (PLoS Computational Biology, 2012).

Experiment [1] deals with T1, CCoAOMT (caffeoyl CoA O-methyltransferase) (Medicago sativa, UniProt Q40313).
T1 construct: gene CCOMT; alfalfa cDNA in pET15b, His-tagged, expressed in E. coli Rosetta, Ni-NTA purified; tag removal not mentioned
Put plainly: HPLC assay of feruloyl CoA formation. Type of experiment: biochemical. The conditions noted are these: 20, 30 or 40 µM caffeoyl CoA; 200 µM S-adenosyl methionine, 600 µM MgCl2, 2 mM DTT, pH 7.5, 30 °C.

Experiment [2] deals with T1, CCoAOMT (caffeoyl CoA O-methyltransferase). Briefly: HPLC assay of feruloyl CoA formation. The following applies: putative activator; 2 µM caffeyl aldehyde, 20 µM caffeoyl CoA, 200 µM S-adenosyl methionine, 600 µM MgCl2, 2 mM DTT, 4% DMSO, pH 7.5, 30 °C. Type of experiment: biochemical.

T1 sequence (Q40313 whole entry): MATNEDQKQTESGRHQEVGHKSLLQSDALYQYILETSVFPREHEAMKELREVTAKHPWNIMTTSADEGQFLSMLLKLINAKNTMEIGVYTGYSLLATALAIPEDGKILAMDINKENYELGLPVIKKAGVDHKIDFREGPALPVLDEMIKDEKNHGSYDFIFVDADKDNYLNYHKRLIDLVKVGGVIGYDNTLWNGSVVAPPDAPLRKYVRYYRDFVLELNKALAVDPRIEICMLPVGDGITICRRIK

In the case of `CC(C)(COP(=O)(O)OP(=O)(O)OC[C@H]1O[C@@H](n2cnc3c(N)ncnc32)[C@H](O)[C@@H]1OP(=O)(O)O)[C@@H](O)C(=O)NCCC(=O)NCCSC(=O)/C=C/c1ccc(O)c(O)c1` [caffeoyl CoA], the “HPLC assay of feruloyl CoA formation” value in experiment [1] is “assayed the purified recombinant enzyme with caffeoyl CoA as substrate”.
As for `O=C/C=C/c1ccc(O)c(O)c1` [caffeyl aldehyde], the “% increase in activity at 2 μM” value in experiment [2] was determined as 16%.
